Results on 3 compounds are retold here after patent US20110124589A1, “INHALED FOSFOMYCIN/TOBRAMYCIN FOR THE TREATMENT OF CHRONIC OBSTRUCTIVE PULMONARY DISEASE” (Gilead Sciences, Inc., priority 2009, published 2011).

Each structure is given as a SMILES string. Values after ≈ are worked out from the molar mass of the structure shown. Read-outs that look alike come from different tables or passages of the source.

Data set [1] deals with S. aureus. Particulars: 16 isolates; agar dilution; cited from earlier work.
Data set [2] has as its system P. aeruginosa. Kind of data set: MIC, agar-plate dilution with 2% porcine gastric mucin (Method B). The data set is classed as cell-based. Particulars: Pseudomonas aeruginosa; 100 P. aeruginosa strains from cystic fibrosis lung sputum; 2% mucin. Here is the method:
Bacterial strains were streaked onto […] […] Louis, Mo.). […] Louis, Mo.). […] Methodologies were identical to that described in Method A above, with the exception that 2% (weight/volume) porcine gastric mucin (Sigma Chemical Co., St. Louis, Mo.) was added to the MHA prior to autoclaving.

Data set [3] deals with H. influenzae. Kind of data set: MIC of recent clinical isolates, agar dilution (CMI study). Type of data set: cell-based. Particulars: Haemophilus influenzae.
For data set [4], the system named is S. pneumoniae. Described as above. Type of data set: cell-based.
Data set [5] relates to M. catarrhalis. Described as above. Type of data set: cell-based. Particulars: Moraxella catarrhalis; 103 isolates.
Data set [6] has as its system S. aureus. Described as above. Type of data set: cell-based. Particulars: Staphylococcus aureus.
Data set [7] deals with P. aeruginosa ATCC 27853. Kind of data set: Time-kill experiments in 2% porcine gastric mucin. Particulars: 2% mucin. The data set is classed as cell-based. As for the experimental part:
These studies were previously reported in PCT Publication no. WO2005/110022 to Gilead Sciences, Inc. (formerly Carus Pharma). Two to three bacterial colonies were inoculated into 10 mL CAMHB and incubated at 35° C. in a shaking water bath (250 rpm) for 18-24 hours. A 1:40 dilution of the overnight culture was made in 10 mL of fresh CAMHB and incubated at 35° C. in a shaking water bath (250 rpm) for 1-2 hours. […] Ten milliliter aliquots were then pipeted into 50 mL conical tubes. […] The killing activity of fosfomycin plus tobramycin was also compared to the killing activity of the individual components. […] A no drug control was conducted in each experiment. […] Bacterial killing was determined at 0, 1, 2, 4, 6, and 24 hours by making 10-fold serial dilutions of the cultures in sterile normal saline, and spreading 100 μl aliquots on blood agar plates. […] The limit of detection for the colony counting method was 1 Log10. Time-kill curves were constructed by plotting the Log10 number of CFU/mL culture versus time.

The subject of a further data set is P. aeuriginosa. Kind of data set: Dose-response time-kill studies in 2% mucin. Particulars: 2% mucin (FIGS. 4-6). The data set is classed as cell-based.
Data set [8] in a line: Sputum drug concentrations following aerosolization of FTI. Particulars: for Cmax: human, sputum, inhaled. Type of data set: in vivo, human. As for the experimental part: In order to assess the amount of drug delivered to the respiratory track, drug concentration was measured in expectorated sputum for patients with CF or bronchiectasis. The fosfomycin and tobramycin range for patient type and dose was 1751-2974 μg/g and 326-881 μg/g, respectively.

Data set [9] concerns S. pneumoniae. Particulars: 8 isolates; agar dilution; cited from earlier work.
For a further data set, the system named is S. pyogenes. Particulars: 5 isolates; broth microdilution; cited from earlier work.
For data set [10], the system named is H. influenzae. Particulars: 16 isolates; agar dilution; cited from earlier work.
The subject of data set [11] is Klebsiella spp. Particulars: 22 isolates; broth microdilution; cited from earlier work.
Data set [12] relates to M. catarrhalis. Particulars: 5 isolates; agar dilution; cited from earlier work.
In data set [13] the test system is P. aeruginosa. Particulars: agar dilution, cited from earlier work.
The next data set deals with B. cepacia complex. Particulars: 20 isolates; agar dilution; cited from earlier work.
Data set [14] deals with S. aureus. Particulars: cited from earlier work.
The test system of a further data set is E. coli. Particulars: cited from earlier work.
The subject of data set [15] is Klebsiella spp. Particulars: cited from earlier work.
Data set [16] has as its system H. influenzae. Particulars: cited from earlier work.
Data set [17] has as its system P. aeruginosa ATCC 27853. Kind of data set: MBC/MIC, broth microdilution.
Protocol: The MBCs of fosfomycin and tobramycin alone for P. aeruginosa ATCC 27853, E. coli ATCC 25922, and S. aureus ATCC 29213 were determined by the broth microdilution method according to NCCLS standards (NCCLS, 1999). […] Bacterial strains were streaked onto blood agar plates and incubated at 35° C. for 18-24 hours. Two to three bacterial colonies from the overnight cultures were inoculated into 3 mL of sterile normal saline, vortexed briefly, and adjusted to a 0.5 McFarland standard (NCCLS, 2003). Fifty microliters of bacterial inoculum (approximately 2×10^5 CFU/mL) was pipeted into individual wells of 96-well plates containing 50 μl of CAMHB (Remel, Lenexa, Kanas) supplemented with 2-fold dilutions of antibiotics ranging in concentration from 0.125 μg/mL to 128 μg/mL. […] The contents of wells showing no growth (MIC and above) were mixed with a pipetor and duplicate 10 μl samples spread onto blood agar plates. Culture plates were incubated at 35° C. for 18-24 hours and the number of bacterial colonies on each plate enumerated manually. Rejection values were determined by NCCLS methods which considers the final inoculum size, single or double sampling, pipetting error, and the Poisson distributuion of sample responses (NCCLS, 1999). […] The MBC/MIC ratios were calculated by dividing the MBC by the MIC.
For another data set, the system named is P. aeruginosa C177. As to the kind of experiment: Rat bacterial pneumonia model. Particulars: =10 mg/kg intratracheally (FIG. 12).
Data set [18] has as its system H. influenzae. Kind of data set: MIC, agar-plate dilution (Method A). Particulars: Haemophilus influenzae.
Protocol: (§1) The efficacy of antibiotics and antibiotic combinations against Gram-positive and Gram-negative bacteria representative of species that cause respiratory infections were evaluated in MIC assays. […] H. influenzae, M. catarrhalis, and S. aureus, were isolated from respiratory tract infections. E. coli ATCC 25922, P. aeruginosa ATCC 27853, and S. aureus ATCC 29213 were used as quality control stains.
(§2) Method A: The MICs of fosfomycin alone, tobramycin alone, or combinations of fosfomycin plus tobramycin were determined by the agar-plate dilution method according to NCCLS guidelines (NCCLS, 2003). Bacterial strains were streaked onto Trypic Soy Agar plates (PML Microbiologicals, Wilsonville, Oreg.) containing 5% defibrinated sheep blood (hereafter referred to as blood agar plates) and incubated overnight at 35° C. Two to three bacterial colonies from the overnight cultures were inoculated into 3 mL of sterile normal saline, vortexed briefly, and adjusted to a 0.5 McFarland standard (NCCLS, 2003). The bacterial suspension was diluted 1:40 in sterile normal saline and served as the inoculum. Mueller-Hinton agar plates (hereafter referred to as MHA) were prepared by combining 16 g of agarose (Becton-Dickinson, Sparks, Md.), 22 g of Mueller-Hinton broth powder (Becton-Dickinson, Sparks, Md.), and adjusted to 1 L with distilled water. The agar was sterilized by autoclaving, cooled to 55° C., and supplemented with 25 μg/mL of glucose-6-phosphate (Sigma-Aldrich, St. Louis, Mo.). Twenty-five mL of cooled agar was aliquoted into 50 mL conical tubes and supplemented with appropriate concentrations of antibiotic to achieve concentrations ranging from 0.06 μg/mL to 512 μg/mL. After gently mixing the agar and antibiotic, the suspension was poured into sterile 100 mm petri dishes and allowed to solidify at room temperature. The antibiotic agar plates were inoculated with approximately 2×10^4 CFU/spot with a 48-point inoculator (Sigma-Aldrich, St. Louis, Mo.). The MIC was defined as the lowest concentration of antibiotic (s) that prevented visible growth after incubation for 18-20 hours at 35° C.
Data set [19] relates to S. aureus. As to the kind of experiment: MIC, agar-plate dilution (Method A).
Protocol: as §1, §2
The subject of data set [20] is S. pneumoniae. As to the kind of experiment: MIC, agar-plate dilution (Method A). Particulars: Streptococcus pneumoniae.
Protocol: as §1, §2

Protocol for P. aeruginosa C177: Animals were handled according to the guidelines for the Care and use of Laboratory Animals. […] All animal protocols were approved by an IRB/Ethics Committee. Male Sprague-Dawley rats (180-200 g) were obtained from Charles River Laboratories (Hollister, Calif., USA) and acclimatized for 5 days prior to use. Animals were housed individually in ventilated cages, fed Purina Lab Diet ad libitum and allowed free access to water.
Antibiotic efficacy was determined using a rat bacterial pneumonia model. […] Rats were anaesthetized with isoflurane, and ˜10^3 cfu of P. aeruginosa C177 in 2% agar solution were instilled into the lungs with an oral gavage needle. The inoculum was deposited at the first bifurcation and distributed throughout the lungs by inspiration. Animals were allowed to recover for 18 hr post-infection. Each experiment consisted of pre-treatment (n=5-7), saline control with isoflurane, and 100 μL of antibiotic solution or saline was instilled in the trachea using a Microsprayer™ (Penn-Century In., Philadelphia, Pa., USA). Antibiotics were administered intratracheally twice daily for 3 days.
Animals were euthanized by intraperitoneal administration of sodium pentobarbital. The pre-treatment control group was harvested 18 hr post-infection, and the saline and treatment groups 18 hr after the last antibiotic exposure. Lungs were removed aseptically, homogenized in sterile normal saline and viable bacteria determined by the colony count method. Statistical differences between the saline control group and treatment groups were evaluated by the Mann-Whitney Rank Sum Test using GraphPad Prism® software package version 3.03 (GraphPad Software, Inc., San Diego, Calif., USA).

Take `O=C(O)c1cn(C2CC2)c2cc(N3CCNCC3)c(F)cc2c1=O` [ciprofloxacin]: in the data set with S. aureus [1], the MIC50 was greater than 4 µg/mL.
On to `C[C@@H]1O[C@@H]1P(=O)(O)O` [Fosfomycin], for which the MIC50 in the data set with P. aeruginosa [2] stood at 64 µg/mL (≈ 464 µM); in the data set with H. influenzae [3] (β-lactamase neg, 62 isolates), 0.25 µg/mL; with H. influenzae [3] (β-lactamase pos, 39 isolates), 0.5 µg/mL; in the data set with S. pneumoniae [4] (Penicillin resistant, 32 isolates) it was 16 µg/mL; in the data set on S. pneumoniae [4] (Streptococcus pneumoniae, penicillin suscept., 39 isolates, read-out: MIC50), 16 µg/mL; in the data set on M. catarrhalis [5] it was 8 µg/mL. Moreover, the MIC50 with S. aureus [6] (MRSA, 103 isolates) was 4 µg/mL; in the data set on S. aureus [6] (MSSA, 104 isolates), 4 µg/mL; in the data set on H. influenzae [10], 0.5 µg/mL (≈ 3.62 µM); in the data set on Klebsiella spp. [11] it was 4 µg/mL (≈ 29 µM); with P. aeruginosa [13] (CF, 100 isolates), 64 µg/mL (≈ 464 µM); with P. aeruginosa [13] (non-CF, 60 isolates), 32 µg/mL (≈ 232 µM). In the data set with B. cepacia complex, the MIC50 is greater than 512 µg/mL. Further, the MIC90 was 128 µg/mL (≈ 927 µM) against P. aeruginosa [2]; 8 µg/mL with H. influenzae [3] (β-lactamase neg, 62 isolates); 2 µg/mL in the data set on H. influenzae [3] (β-lactamase pos, 39 isolates); 32 µg/mL in the data set on S. pneumoniae [4] (Streptococcus pneumoniae, Penicillin resistant, 32 isolates); 16 µg/mL in the data set on S. pneumoniae [4] (Streptococcus pneumoniae, penicillin suscept., 39 isolates); 16 µg/mL with M. catarrhalis [5]. Also, the MIC90 in the data set on S. aureus [6] (MRSA, 103 isolates) is 8 µg/mL; with S. aureus [6] (MSSA, 104 isolates), 4 µg/mL; in the data set on H. influenzae [10], 2 µg/mL (≈ 14.5 µM); in the data set with Klebsiella spp. [11] it was 16 µg/mL (≈ 116 µM); in the data set with P. aeruginosa [13] (CF, 100 isolates), 512 µg/mL (≈ 3710 µM); in the data set on P. aeruginosa [13] (non-CF, 60 isolates), 128 µg/mL (≈ 927 µM). Besides, the MIC90 in the data set with B. cepacia complex is greater than 512 µg/mL. Also, the “activity at 24 hours in time-kill curves (FIG. 2)” value with P. aeruginosa ATCC 27853 [7] (12.8 μg/mL fosfomycin, 3.2 μg/mL tobramycin, or both, 24 hours) is listed as “re-growth was observed”. The “killing activity in time-kill curves (FIG. 2)” value in the data set on P. aeruginosa ATCC 27853 [7] (4×MIC: 12.8 μg/mL fosfomycin + 3.2 μg/mL tobramycin vs the components alone) is on record as “bacteriostatic activity”. The “killing activity in time-kill curves (FIG. 1)” value in the data set on P. aeruginosa ATCC 27853 [7] (9:1 combination (fosfomycin 14.4 μg/mL + tobramycin 1.6 μg/mL) vs the components alone) was “bacteriostatic killing”. Besides, in the data set on P. aeuriginosa, the bactericidal or bacteriostatic result is recorded as “bacteriostatic”. Besides, the “time-dependent or concentration-dependent killing” value in the data set with P. aeuriginosa is “time-dependent killing”. For the same compound, the “sputum concentration range for patient type and dose” value in data set [8] (both FTI doses, CF and bronchiectasis patients) was 1751 to 2974 µg/g. Moreover, the Cmax came out at 1.75e+06 ng/g in [8] (20 mg, patients with Bronchiectasis, aerosolized 80:20 mg FTI); 2.07e+06 ng/g in [8] (20 mg, patients with Cystic Fibrosis, aerosolized 80:20 mg FTI); 1.98e+06 ng/g in [8] (40 mg, patients with Bronchiectasis, aerosolized 160:40 mg FTI); 2.97e+06 ng/g in data set [8] (40 mg, patients with Cystic Fibrosis, aerosolized 160:40 mg FTI). The MIC range in the data set with S. pneumoniae [9] was 8 to 32 µg/mL; with S. pyogenes, 16 to 64 µg/mL; in the data set on H. influenzae [10] it was 0.25 to 4 µg/mL; in the data set with Klebsiella spp. [11], 0.5-16^ mg/L; in the data set on M. catarrhalis [12], 4 to 16 µg/mL. The “Range of MBC/MIC” value with S. aureus [14] (10 strains) is 1-8; with E. coli (10 strains), 1-8; with Klebsiella spp. [15] (5 strains), 1-4; with H. influenzae [16] (6 strains) it was 1-8. Also, the “strains against which bactericidal” value with S. aureus [14] is reported as 80%; in the data set on E. coli, 90%; in the data set with Klebsiella spp. [15] it was 100%; in the data set on H. influenzae [16], 83%. Further, the MBC/MIC entry against P. aeruginosa ATCC 27853 [17] was “=8”. Further, the reduction in cfu/lung result with P. aeruginosa C177 is “not observed”. In addition, the MIC against H. influenzae [18] was 8 µg/mL (≈ 57.9 µM); with H. influenzae [18] (strain COR-049), 128 µg/mL (≈ 927 µM); against S. aureus [19] (Staphylococcus aureus), 2 µg/mL (≈ 14.5 µM); in the data set with S. aureus [19] (Staphylococcus aureus, MRSA) it was 4 µg/mL (≈ 29 µM); with S. aureus [19] (Staphylococcus aureus, MSSA), 1 µg/mL (≈ 7.24 µM); with S. aureus [19] (strain COR-060 (GISA)), 2 µg/mL (≈ 14.5 µM). The MIC turned out to be 32 µg/mL (≈ 232 µM) in the data set with S. pneumoniae [20] (strain COR-061) and 8 µg/mL (≈ 57.9 µM) with S. pneumoniae [20] (strain COR-068).
On to `CN[C@H](CC(C)C)C(=O)N[C@H]1C(=O)N[C@@H](CC(N)=O)C(=O)N[C@H]2C(=O)N[C@H]3C(=O)N[C@H](C(=O)N[C@H](C(=O)O)c4cc(O)cc(O)c4-c4cc3ccc4O)[C@H](O)c3ccc(c(Cl)c3)Oc3cc2cc(c3O[C@@H]2O[C@H](CO)[C@@H](O)[C@H](O)[C@H]2O[C@H]2C[C@](C)(N)[C@H](O)[C@H](C)O2)Oc2ccc(cc2Cl)[C@H]1O` [vancomycin], for which the MIC50 in the data set with S. aureus [1] is 1 µg/mL (≈ 0.69 µM).
